Source: US12534444B2, “Treatment of cancer/inhibition of metastasis” (Celex Oncology Innovations Limited, priority 2010, dated 2026)

System: MDA-MB-231 cells
Assay: Single-cell adhesion assay (SCAMA, detachment negative pressure)
Type: cell-based, human
Details: 24 hours
Experimental: FIG. 4 is a schematic illustration of the single-cell adhesion measurement apparatus (SCAMA) first described in the paper by Palmer et al. (2008). Human breast cancer cells from the MDA-MB-231 cell line were plated at a density of 2.5×10^4 cells/ml and left to settle in a cell culture dish 401 for 48 hours prior to measurements. Medium was removed and 2 ml of the drug under study was applied for 10 minutes. Adhesion was measured using a glass micropipette 402 connected to a vacuum pump 403 via plastic tubing 404. The tip of the micropipette was drawn to about 20 μm (range, 17-24 μm) tip diameter. The vacuum pump was used to create negative pressure inside a reservoir 405 so that the negative pressure could be applied to the tip of the micropipette by pressing the thumb to the open end of a sealable T-piece 406. […] The pressure was measured using a digital manometer 409 connected to a computer 410 via a RS232 cable 411. Using a micromanipulator 412, the micropipette 402 was positioned on the periphery of a single cell. […] The negative pressure required to detach the cell was recorded on the computer as a pressure spike. The peak of the spike (“detachment negative pressure” (DNP)) was used as a measure of the cell's adhesiveness. Using this technique, several recordings could be made from a single dish within minutes. […] In order to test for the reversibility of a given effect, the pharmacological agent was washed off, fresh medium was added and the plate was incubated for a further 10 minutes prior to re-measurement. Each treatment was carried out on at least two dishes of cells, at least 100 cells per dish were measured, and the experiment was repeated three times (with corresponding controls). In the single cell adhesion experiments, hypoxia was induced chemically by application of hydrogen peroxide (1-500 μM) for 24 hours.

Structure (SMILES): OO [hydrogen peroxide]
- mean detachment negative pressure (ΔDNP versus untreated control) (hydrogen peroxide 1 μM): approximately −9%
- mean detachment negative pressure (ΔDNP versus untreated control) (hydrogen peroxide 10 μM): approximately −14%
- mean detachment negative pressure (ΔDNP versus untreated control) (hydrogen peroxide 100 μM): approximately −20%
